Test results as given in US20240116985A1, “STAPLED PEPTIDES AND METHODS THEREOF” (priority 2020, published 2024).
Like-named read-outs stand apart in the source and are kept apart here.

What was measured:
[1] = CHI Log D procedure; format: physicochemical
[2] = target: T1, full-length beta-Catenin (Uniprot ID P35222) (Homo sapiens, UniProt P35222); assay: Fluorescence polarization IC50 (beta-catenin / 5FAM-TCF4 10-53 competition); format: binding
T1 construct: 10 nM full-length beta-Catenin (Uniprot ID P35222)
T1 sequence (P35222 1-781): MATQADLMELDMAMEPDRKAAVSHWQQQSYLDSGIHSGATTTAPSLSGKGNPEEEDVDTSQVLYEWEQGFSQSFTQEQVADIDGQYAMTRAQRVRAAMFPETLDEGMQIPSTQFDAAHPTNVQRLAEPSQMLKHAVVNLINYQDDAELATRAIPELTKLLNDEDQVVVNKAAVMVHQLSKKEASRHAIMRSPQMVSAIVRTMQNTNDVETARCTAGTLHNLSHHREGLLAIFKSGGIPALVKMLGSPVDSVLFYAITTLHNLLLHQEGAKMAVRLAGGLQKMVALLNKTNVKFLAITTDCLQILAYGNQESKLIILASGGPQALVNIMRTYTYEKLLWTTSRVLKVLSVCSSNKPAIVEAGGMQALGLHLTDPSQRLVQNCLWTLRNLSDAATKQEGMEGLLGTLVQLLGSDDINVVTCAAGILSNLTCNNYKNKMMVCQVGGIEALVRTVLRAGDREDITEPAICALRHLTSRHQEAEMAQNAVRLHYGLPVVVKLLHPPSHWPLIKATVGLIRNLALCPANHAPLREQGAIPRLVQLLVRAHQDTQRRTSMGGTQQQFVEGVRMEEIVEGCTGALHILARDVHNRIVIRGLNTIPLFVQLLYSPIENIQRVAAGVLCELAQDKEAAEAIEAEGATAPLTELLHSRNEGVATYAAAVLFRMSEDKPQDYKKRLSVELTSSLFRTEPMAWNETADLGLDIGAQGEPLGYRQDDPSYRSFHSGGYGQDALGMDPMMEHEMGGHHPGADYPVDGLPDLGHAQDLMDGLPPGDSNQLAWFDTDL

[3] = fluorescence polarization, read-out: beta-Catenin FP IC50

CC[C@H](C)[C@@H]1NC(=O)[C@H](CC(=O)O)NC(=O)[C@]2(CC=CCCCC3(CCCC=CCCCCCC[C@@](C)(C(=O)N[C@@H](Cc4ccccc4)C(=O)N[C@@H](Cc4csc5ccccc45)C(=O)N[C@@H](CCC(N)=O)C(N)=O)NC(=O)[C@H](CCC(N)=O)NC(=O)[C@H](Cc4ccccc4)NC(=O)[C@H](C)NC(=O)[C@H](CCCCNC(=O)CN=[N+]=[N-])NC(=O)[C@H](CCC(=O)O)NC(=O)[C@H](CC(=O)O)NC3=O)NC1=O)CCCN2C(C)=O (stereo partly drawn) [I-592, Ac-PL3-Asp-Ile-B5-Asp-Glu-[AzAc]Lys-Ala-Phe-Gln-S8-Phe-BztA-Gln-NH2]
CHI Log D ([1]; pH 7.4): 2.414 | IC50 ([2]; read-out: FP EC50): 24 nM

CC[C@H](C)[C@@H]1NC(=O)[C@H](CC(=O)O)NC(=O)[C@]2(CC=CCCCC3(CCCC=CCCCCCC[C@@](C)(C(=O)N[C@@H](Cc4ccccc4)C(=O)N[C@@H](Cc4csc5ccccc45)C(=O)N[C@@H](CCC(N)=O)C(N)=O)NC(=O)[C@H](CCC(N)=O)NC(=O)[C@H](Cc4ccccc4)NC(=O)[C@H](CCCCNC(=O)CN=[N+]=[N-])NC(=O)[C@H](C)NC(=O)[C@H](CCC(=O)O)NC(=O)[C@H](CC(=O)O)NC3=O)NC1=O)CCCN2C(C)=O (stereo partly drawn) [I-593, Ac-PL3-Asp-Ile-B5-Asp-Glu-Ala-[AzAc]Lys-Phe-Gln-S8-Phe-BztA-Gln-NH2]
chromatographic logD ([1]; pH 7.4): 2.12 | IC50 ([2]; FP EC50 (nM)): 68 nM

CC[C@H](C)[C@@H]1NC(=O)[C@H](CC(=O)O)NC(=O)[C@]2(CC=CCCCC3(CCCC=CCCCCCC[C@@](C)(C(=O)N[C@@H](Cc4ccccc4)C(=O)N[C@@H](Cc4csc5ccccc45)C(=O)N[C@@H](CCC(N)=O)C(N)=O)NC(=O)[C@H](CCCCNC(=O)CN=[N+]=[N-])NC(=O)[C@H](Cc4ccccc4)NC(=O)[C@H](C)NC(=O)[C@H](C)NC(=O)[C@H](CCC(=O)O)NC(=O)[C@H](CC(=O)O)NC3=O)NC1=O)CCCN2C(C)=O (stereo partly drawn) [I-594, Ac-PL3-Asp-Ile-B5-Asp-Glu-Ala-Ala-Phe-[AzAc]Lys-S8-Phe-BztA-Gln-NH2]
chromatographic logD ([1]; pH 7.4): 2.61 | IC50 ([2]; FP EC50 (nM)): 87 nM

CC[C@H](C)[C@@H]1NC(=O)[C@H](CC(=O)O)NC(=O)[C@]2(CC=CCCCC3(CCCC=CCCCCCC[C@@](C)(C(=O)N[C@@H](Cc4ccccc4)C(=O)N[C@@H](Cc4csc5ccccc45)C(=O)N[C@@H](CCCCNC(=O)CN=[N+]=[N-])C(N)=O)NC(=O)[C@H](CCC(N)=O)NC(=O)[C@H](Cc4ccccc4)NC(=O)[C@H](C)NC(=O)[C@H](C)NC(=O)[C@H](CCC(=O)O)NC(=O)[C@H](CC(=O)O)NC3=O)NC1=O)CCCN2C(C)=O (stereo partly drawn) [I-595, Ac-PL3-Asp-Ile-B5-Asp-Glu-Ala-Ala-Phe-Gln-S8-Phe-BztA-[AzAc]Lys-NH2]
chromatographic logD ([1]; pH 7.4): 2.64 | IC50 ([2]; FP EC50 (nM)): 57 nM

CC[C@H](C)[C@@H]1NC(=O)[C@H](CC(=O)O)NC(=O)[C@]2(CC=CCCCC3(CCCC=CCCCCCC[C@@](C)(C(=O)N[C@@H](Cc4ccccc4)C(=O)N[C@@H](Cc4csc5ccccc45)C(=O)N[C@@H](CCC(N)=O)C(=O)N[C@@H](CCCCNC(=O)CN=[N+]=[N-])C(N)=O)NC(=O)[C@H](CCC(N)=O)NC(=O)[C@H](Cc4ccccc4)NC(=O)[C@H](C)NC(=O)[C@H](C)NC(=O)[C@H](CCC(=O)O)NC(=O)[C@H](CC(=O)O)NC3=O)NC1=O)CCCN2C(C)=O (stereo partly drawn) [I-596, Ac-PL3-Asp-Ile-B5-Asp-Glu-Ala-Ala-Phe-Gln-S8-Phe-BztA-Gln-[AzAc]Lys-NH2]
CHI Log D ([1]; pH 7.4): 2.373 | IC50 ([2]; read-out: FP EC50): 112 nM

CC[C@H](C)[C@@H]1NC(=O)[C@H](CC(=O)O)NC(=O)[C@]2(CC=CCCCC3(CCCC=CCCCCCC[C@@](C)(C(=O)N[C@@H](Cc4ccccc4)C(=O)N[C@@H](Cc4csc5ccccc45)C(=O)N[C@@H](CCC(N)=O)C(=O)N[C@@H](CCCCNC(=O)CN=[N+]=[N-])C(N)=O)NC(=O)[C@H](CCC(N)=O)NC(=O)[C@H](Cc4ccccc4)NC(=O)[C@H](C)NC(=O)[C@H](C)NC(=O)[C@H](CCC(=O)O)NC(=O)[C@H](CC(=O)O)NC3=O)NC1=O)CCCN2C(C)=O (stereo partly drawn) [I-597, Ac-PL3-Asp-Ile-B5-Asp-Glu-Ala-Ala-Phe-Gln-S8-Phe-BztA-Gln-[AzAc]Lys-NH2]
CHI Log D ([1]; pH 7.4): 2.39 | IC50 ([2]; read-out: FP EC50): 76 nM

CC[C@H](C)[C@@H]1NC(=O)[C@H](CC(=O)O)NC(=O)[C@]2(CC=CCCCC3(CCCC=CCCCCCC[C@@](C)(C(=O)N[C@@H](Cc4ccccc4)C(=O)N[C@@H](Cc4csc5ccccc45)C(=O)N[C@@H](CCC(N)=O)C(N)=O)NC(=O)[C@H](CCC(N)=O)NC(=O)[C@H](Cc4ccccc4)NC(=O)[C@H](C)NC(=O)[C@H](C)NC(=O)[C@H](CCC(=O)O)NC(=O)[C@H](CC(=O)O)NC3=O)NC1=O)CCCN2C(=O)CCc1ccccn1 (stereo partly drawn) [I-602, 2PyPrpc-PL3-Asp-Ile-B5-Asp-Glu-Ala-Ala-Phe-Gln-S8-Phe-BztA-Gln-NH2]
chromatographic logD ([1]; pH 7.4, CHI Log D): 3.15 | IC50 [2, 3]: 3150 nM

CC[C@H](C)[C@@H]1NC(=O)[C@H](CC(=O)O)NC(=O)[C@]2(CC=CCCCC3(CCCC=CCCCCCC[C@@](C)(C(=O)N[C@@H](Cc4ccccc4)C(=O)N[C@@H](Cc4csc5ccccc45)C(=O)N[C@@H](CCC(N)=O)C(N)=O)NC(=O)[C@H](CCC(N)=O)NC(=O)[C@H](Cc4ccccc4)NC(=O)[C@H](C)NC(=O)[C@H](C)NC(=O)[C@H](CN(CC)CC(=O)O)NC(=O)[C@H](CC(=O)O)NC3=O)NC1=O)CCCN2C(C)=O (stereo partly drawn) [I-608, Ac-PL3-Asp-Ile-B5-Asp-EtGa-Ala-Ala-Phe-Gln-S8-Phe-BztA-Gln-NH2]
CHI Log D ([1]; pH 7.4): 2.506 | logD ([1]; pH 7.4): 2.5 | IC50 [2, 3]: 211 nM | IC50 ([2]; read-out: FP EC50): 211 nM | IC50 ([2]; read-out: bCat FP IC50): 211 nM

CC[C@H](C)[C@@H]1NC(=O)[C@H](CC(=O)O)NC(=O)[C@]2(CC=CCCCC3(CCCC=CCCCCCC[C@@](C)(C(=O)N[C@@H](Cc4ccccc4)C(=O)N[C@@H](Cc4csc5ccccc45)C(=O)N[C@@H](CCC(N)=O)C(N)=O)NC(=O)[C@H](CCC(N)=O)NC(=O)[C@H](Cc4ccccc4)NC(=O)[C@H](C)NC(=O)[C@H](C)NC(=O)[C@H](CN(CC)CC(=O)O)NC(=O)[C@H](CC(=O)O)NC3=O)NC1=O)CCCN2C(C)=O (stereo partly drawn) [I-609, Ac-PL3-Asp-Ile-B5-Asp-EtGa-Ala-Ala-Phe-Gln-S8-Phe-BztA-Gln-NH2]
CHI Log D ([1]; pH 7.4): 2.534 | logD ([1]; pH 7.4): 2.5 | IC50 [2, 3]: 80 nM | IC50 ([2]; read-out: FP EC50): 80 nM | IC50 ([2]; read-out: bCat FP IC50): 80 nM

CC[C@H](C)[C@@H]1NC(=O)[C@H](CC(=O)O)NC(=O)[C@]2(CC=CCCCC3(CCCC=CCCCCCC[C@@](C)(C(=O)N[C@@H](Cc4ccccc4)C(=O)N[C@@H](Cc4csc5ccccc45)C(=O)N[C@@H](CCC(N)=O)C(N)=O)NC(=O)[C@H](CCC(N)=O)NC(=O)[C@H](Cc4ccccc4)NC(=O)[C@H](C)NC(=O)[C@H](C)NC(=O)[C@H](CN(CC(=O)O)CC(F)(F)F)NC(=O)[C@H](CC(=O)O)NC3=O)NC1=O)CCCN2C(C)=O (stereo partly drawn) [I-610, Ac-PL3-Asp-Ile-B5-Asp-TfeGA-Ala-Ala-Phe-Gln-S8-Phe-BztA-Gln-NH2]
CHI Log D ([1]; pH 7.4): 2.587 | logD ([1]; pH 7.4): 2.6 | IC50 [2, 3]: 54 nM | IC50 ([2]; read-out: FP EC50): 54 nM | IC50 ([2]; read-out: bCat FP IC50): 54 nM

CC[C@H](C)[C@@H]1NC(=O)[C@H](CC(=O)O)NC(=O)[C@]2(CC=CCCCC3(CCCC=CCCCCCC[C@@](C)(C(=O)N[C@@H](Cc4ccccc4)C(=O)N[C@@H](Cc4csc5ccccc45)C(=O)N[C@@H](CCC(N)=O)C(N)=O)NC(=O)[C@H](CCC(N)=O)NC(=O)[C@H](Cc4ccccc4)NC(=O)[C@H](C)NC(=O)[C@H](C)NC(=O)[C@H](CN(CC(=O)O)CC(F)(F)F)NC(=O)[C@H](CC(=O)O)NC3=O)NC1=O)CCCN2C(C)=O (stereo partly drawn) [I-611, Ac-PL3-Asp-Ile-B5-Asp-TfeGA-Ala-Ala-Phe-Gln-S8-Phe-BztA-Gln-NH2]
CHI Log D ([1]; pH 7.4): 2.595 | logD ([1]; pH 7.4): 2.6 | IC50 [2, 3]: 55 nM | IC50 ([2]; read-out: FP EC50): 55 nM | IC50 ([2]; read-out: bCat FP IC50): 55 nM

CC[C@H](C)[C@@H]1NC(=O)[C@H](CNS(=O)(=O)C(F)(F)F)NC(=O)[C@]2(CC=CCCCC3(CCCC=CCCCCCC[C@@](C)(C(=O)N[C@@H](Cc4ccccc4)C(=O)N[C@@H](Cc4csc5ccccc45)C(=O)N[C@@H](CCC(N)=O)C(N)=O)NC(=O)[C@H](CCC(N)=O)NC(=O)[C@H](Cc4ccccc4)NC(=O)[C@H](C)NC(=O)[C@H](C)NC(=O)[C@H](CCC(=O)O)NC(=O)[C@H](CC(=O)O)NC3=O)NC1=O)CCCN2C(C)=O (stereo partly drawn) [I-632, Ac-PL3-[Tf]Dap-Ile-B5-Asp-Glu-Ala-Ala-Phe-Gln-S8-Phe-BztA-Gln-NH2]
chromatographic logD ([1]; pH 7.4, CHI Log D): 3.15 | IC50 [2, 3]: 5000 nM

CCCC[C@@H]1NC(=O)[C@H](C)NC(=O)[C@H](CCC(=O)O)NC(=O)[C@H](CC(=O)O)NC(=O)C2(CCCC=CCCCCCC[C@@](C)(C(=O)N[C@@H](Cc3ccccc3)C(=O)N[C@@H](Cc3csc4ccccc34)C(=O)N[C@@H](CCC(N)=O)C(N)=O)NC(=O)[C@H](CCC(N)=O)NC(=O)[C@H](Cc3ccccc3)NC1=O)CCCC=CC[C@]1(CCCN1C(C)=O)C(=O)N[C@@H](CC(=O)O)C(=O)N[C@@H]([C@@H](C)CC)C(=O)N2 (stereo partly drawn) [I-666, Ac-PL3-Asp-Ile-B5-Asp-Glu-Ala-nLeu-Phe-Gln-S8-Phe-BztA-Gln-NH2]
CHI Log D ([1]; pH 7.4): 2.862 | IC50 [2, 3]: 626 nM | IC50 ([2]; read-out: FP EC50): 626 nM
